One assay addresses human orexin-1 receptor (Homo sapiens (Human), UniProt O43613). Kind of assay: In vitro assay: intracellular calcium measurements (FLIPR), antagonistic activity. The assay is classed as cell-based. Particulars: CHO cells expressing human orexin-1 receptor, orexin-A agonist, geometric mean, read-out: IC50 Ox1. The essentials: (§1)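 Read-out: FLIPR fluo-4 calcium peak height in CHO cells bearing human orexin-1 or orexin-2 receptor, relative to orexin-A (approx. EC70) with vehicle. Antagonist preincubation 120 min; agonist orexin-A at 3 nM final. IC50 possibly normalized to an on-plate reference compound.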

The target of the next assay is human orexin-2 receptor (Homo sapiens (Human), UniProt O43614). The description is as above. The assay is classed as cell-based. Particulars: CHO cells expressing human orexin-2 receptor, orexin-A agonist, geometric mean, read-out: IC50 Ox2. The essentials: as §1

pIC50: −log10 of the molar value.

Chain of human orexin-1 receptor (O43613 whole entry): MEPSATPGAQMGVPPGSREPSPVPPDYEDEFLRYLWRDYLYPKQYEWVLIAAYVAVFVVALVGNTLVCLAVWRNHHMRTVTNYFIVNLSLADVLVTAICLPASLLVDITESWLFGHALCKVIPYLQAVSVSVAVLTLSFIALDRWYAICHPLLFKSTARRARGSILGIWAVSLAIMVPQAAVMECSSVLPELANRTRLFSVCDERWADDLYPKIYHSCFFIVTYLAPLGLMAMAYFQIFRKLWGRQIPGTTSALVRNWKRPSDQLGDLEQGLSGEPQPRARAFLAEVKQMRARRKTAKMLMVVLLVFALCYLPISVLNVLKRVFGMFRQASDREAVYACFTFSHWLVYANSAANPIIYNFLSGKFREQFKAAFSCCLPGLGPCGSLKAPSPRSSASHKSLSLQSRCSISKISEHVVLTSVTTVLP
Chain of human orexin-2 receptor (O43614 whole entry): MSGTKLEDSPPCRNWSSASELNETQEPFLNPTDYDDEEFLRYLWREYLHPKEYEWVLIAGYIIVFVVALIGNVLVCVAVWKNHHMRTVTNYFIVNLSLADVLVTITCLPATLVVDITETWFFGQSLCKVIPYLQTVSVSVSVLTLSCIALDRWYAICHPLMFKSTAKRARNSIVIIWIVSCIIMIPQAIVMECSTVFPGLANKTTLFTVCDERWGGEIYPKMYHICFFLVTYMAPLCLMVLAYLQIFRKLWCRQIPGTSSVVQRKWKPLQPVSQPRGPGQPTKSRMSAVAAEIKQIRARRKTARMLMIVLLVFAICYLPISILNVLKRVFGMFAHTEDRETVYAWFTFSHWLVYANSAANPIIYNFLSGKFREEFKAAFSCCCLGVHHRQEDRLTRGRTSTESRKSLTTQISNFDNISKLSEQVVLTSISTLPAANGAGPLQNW

For the compound `Cc1ccc(-n2nccn2)c(C(=O)N2CCC[C@@]2(C)c2nc3c(C)c(C)c(Br)cc3[nH]2)c1` [Ex. 5.266], the pIC50 at human orexin-1 receptor and at human orexin-2 receptor was 9.00 each time.

On to `Cc1ccc(-c2ccccc2)c(C(=O)N2CC[C@H](C)[C@H]2c2nc3c(C)c(Cl)ccc3[nH]2)c1F` [Ex. 4.171], for which the pIC50 – broadly, the negative decadic logarithm of the IC50, by convention in mol/L – was 8.82 on human orexin-1 receptor and 6.24 on human orexin-2 receptor.

On to `Cc1cc2nc([C@@H]3[C@@H](C)CCN3C(=O)c3ccccc3-n3nccn3)[nH]c2cc1C` [Ex. 4.85], for which the figures for the pIC50 on human orexin-1 receptor and on human orexin-2 receptor were 8.15 and 7.37, respectively.

With `Cc1ccc(-c2sccc2C(=O)N2CC[C@H](C)[C@H]2c2nc3c(Cl)cccc3[nH]2)cc1C` [Ex. 4.127], the pIC50 on human orexin-1 receptor was 9.00; at human orexin-2 receptor, 7.72.

Take `CSc1cccc2nc([C@@H]3CCCN3C(=O)c3nc(C4CC4)sc3-c3ccc(C)cc3)[nH]c12` [Ex. 1.68]: the pIC50 was 8.15 on human orexin-1 receptor and 8.10 on human orexin-2 receptor.

Regarding `CO[C@@H]1C[C@@H](c2nc3ccc(Cl)c(C)c3[nH]2)N(C(=O)c2cc(Cl)ccc2-n2nccn2)C1` [Ex. 3.10], the values for the negative-log IC50 (pIC50) on human orexin-1 receptor and on human orexin-2 receptor were 7.35 and 8.30, respectively.

As for `COc1cc(C(=O)N2CCC[C@@]2(C)c2nc3c(C)c(Cl)ccc3[nH]2)c(-n2nccn2)cc1OC` [Ex. 5.39], the results for the pIC50 at human orexin-1 receptor and on human orexin-2 receptor were 7.44 and 7.70, respectively.

Regarding `C[C@@]1(c2nc3cc(Cl)c(C(F)(F)F)cc3[nH]2)CCCN1C(=O)c1nc(-c2ccccc2F)sc1-c1ccc(F)cc1` [Ex. 5.289], the values for the pIC50 on human orexin-1 receptor and on human orexin-2 receptor were 7.42 and 6.27, respectively.

On to `COCCn1c([C@]2(C)CCCN2C(=O)c2cc(C)ccc2-c2cccc(OC)c2)nc2cc(C)c(C)cc21` [Ex. 7.53], for which the negative-log IC50 (pIC50) on human orexin-1 receptor is 7.34; on human orexin-2 receptor, 6.72.

Consider `CO[C@@H]1C[C@@H](c2nc3ccc(Cl)c(C)c3[nH]2)N(C(=O)c2cc(F)ccc2-n2nccn2)C1` [Ex. 3.18], for which the pIC50 on human orexin-1 receptor is 7.01; on human orexin-2 receptor, 8.40.

Take `C=C1C[C@@H](c2nc3cccc(C)c3[nH]2)N(C(=O)c2nc(C)sc2-c2cc(C)cc(C)c2)C1` [Ex. 6.107]: the pIC50 at human orexin-1 receptor is 7.13; on human orexin-2 receptor it was 7.80.

For the compound `COc1cc(F)ccc1-c1nc(C(=O)N2CCC[C@@]2(C)c2nc3c(C)c(Cl)ccc3[nH]2)c(-c2ccc(F)cc2)s1` [Ex. 5.260], the negative-log IC50 (pIC50) at human orexin-1 receptor is 7.70; at human orexin-2 receptor, 5.54.

Consider `Cc1cc2[nH]c([C@@H]3[C@@H](C)CCN3C(=O)c3cc(C#N)ccc3-c3ccccc3)nc2cc1Cl` [Ex. 4.108], for which the values for the pIC50 on human orexin-1 receptor and at human orexin-2 receptor were 8.15 and 6.38, respectively.

As to `Cc1ccc(-c2nc(C(=O)N3CCC[C@@]3(C)c3nc4cc(Cl)c(C(F)(F)F)cc4[nH]3)c(-c3ccc(F)cc3)s2)cc1` [Ex. 5.288], the negative-log IC50 (pIC50) is 7.42 on human orexin-1 receptor and 5.87 on human orexin-2 receptor.

With `COc1cc2nc([C@]3(C)CCCN3C(=O)c3nc(C)sc3-c3ccc(F)cc3)[nH]c2cc1OC` [Ex. 5.78], the pIC50 was 7.51 at human orexin-1 receptor and 7.14 on human orexin-2 receptor.

`COc1ccc(-c2nc(C(=O)N3CCC[C@@]3(C)c3nc4cc(Cl)c(C(F)(F)F)cc4[nH]3)c(-c3ccc(F)cc3)s2)cc1` [Ex. 5.293]: the pIC50 was 7.11 at human orexin-1 receptor and 5.39 on human orexin-2 receptor.

As for `C=C1C[C@@H](c2nc3cc(C(C)(C)C)ccc3[nH]2)N(C(=O)c2ccccc2-n2cccn2)C1` [Ex. 6.172], the pIC50 at human orexin-1 receptor is 5.90; on human orexin-2 receptor it was 7.17.

In the case of `COc1ccc(-n2nccn2)c(C(=O)N2CCC[C@H]2c2nc3cccc(SC)c3[nH]2)c1` [Ex. 1.166], the pIC50 at human orexin-1 receptor was 7.35; at human orexin-2 receptor, 8.40.

Regarding `Cc1ccc(-c2ncccn2)c(C(=O)N2CCC[C@@]2(C)c2nc3cc(OC(F)(F)F)ccc3[nH]2)c1` [Ex. 5.281], the pIC50 at human orexin-1 receptor was 7.47; on human orexin-2 receptor it was 6.42.

On to `C=C1CC(c2nc3cc(Cl)c(C)cc3[nH]2)N(C(=O)c2cc(C)sc2-c2ccc(C)c(C)c2)C1` (racemic) [Ex. 6.80], for which the negative logarithm of the IC50 (pIC50) at human orexin-1 receptor is 7.89; at human orexin-2 receptor, 7.72.

(Values after patent US9732075B2, “Benzimidazole-proline derivatives” (IDORSIA PHARMACEUTICALS LTD, priority 2012, dated 2017).)
